The results in this text go back to patent US20260274810A1, “NOVEL MITOFUSIN INHIBITORS” (ALBERT EINSTEIN COLLEGE OF MEDICINE, priority 2023, published 2026).

For experiment [1], the system named is MEFs. The experiment in a line: RNA-seq. The experiment is classed as cell-based, mouse. The text has this:
RNA-seq. Sequencing results were demultiplexed and converted to FASTQ format using Illumina bcl2fastq software. The sequencing reads were adapter and quality trimmed with Trimmomatic and then aligned to the mouse genome (build mm10/GRCm38) using the splice-aware STAR aligner. The featureCounts program was utilized to generate counts for each gene based on how many aligned reads overlap its exons. These counts were then normalized and used to test for differential expression using negative binomial generalized linear models implemented by the DESeq2 R package.

Experiment [2] concerns MEFs. Put plainly: Mitochondrial aspect ratio (Mito AR), live cell imaging.
Experimental: Live cell imaging. MEFs were seeded on chamber slides (MatTek Corporation: 35 mm dishes, No. 1.5, 14 mm glass diameter) at ~70% confluence. […] Images were taken with Leica SP5 inverted confocal microscope. Data were analyzed with Image J software. >200 mitochondria were measured per condition in mitochondrial aspect ratio.
Measurement of mitochondrial aspect ratio (Mito AR). Images that depict stained mitochondria with mitotracker green were analyzed using FIJI We measured for each mitochondrion its length and width. Then, we divided the length by the width for each mitochondrion to get its mitochondrial aspect ratio. >200 mitochondria were measured per treatment.
MEFs were seeded on chamber slides (MatTek Corporation: 35 mm dishes, No. 1.5, 14 mm glass diameter) at ~70% confluence. Cells were treated with compounds. Then, cells were stained with MitoTracker Green (200 nM, Invitrogen) for 20 min at 37° C. After treatments, media was replaced with FluoroBrite™ DMEM (Invitrogen) supplemented with 10% FBS, 100 U ml^−1 penicillin/streptomycin, 2 mM L-glutamine and compound prior image acquisition. Images were taken with Leica SP5 inverted confocal microscope. Data were analyzed with Image J software. >200 mitochondria were measured per condition in mitochondrial aspect ratio. Measurement of mitochondrial aspect ratio (Mito AR). Images that depict stained mitochondria with mitotracker green were analyzed using FIJI software. Each mitochondrion was measured for its length and width. Then, the length was divided by the width for each mitochondrion to get its mitochondrial aspect ratio. >200 mitochondria were measured per treatment.
Experiment [3] concerns MEFs. The experiment in a line: Cytochrome C release. It is filed as cell-based, mouse. Particulars: 6 hrs; mitofusin dependent. The procedure:
Cytochrome C release. MEFs were seeded in a […] and grown at ~70% confluence. Following 6 hrs treatment with MFI8, cells were harvested and lysed in digitonin buffer [20 mM Hepes, pH 7.2, 10 mM KCl, 5 mM MgCl2, 1 m MEDTA, 1 mM EGTA, 250 mM sucrose, 0.025% Digitonin (from 5% w/v stock) and complete protease inhibitors (Roche Applied Science)] on ice for 10 min. Then, supernatants were isolated by centrifugation at 15,000×g for 10 min. Mitochondrial pellets solubilized in 1% Triton X-100/PBS for 1 hr at 4° C. Solubilized Pellets were subjected to a 14,000×rpm spin for 10 min. Samples were prepared for western blot analysis and separated by 4-12% NuPage (Life Technologies).

Experiment [4] concerns Tomm20, mitotracker green, mtDNA/nDNA, mitochondrial biogenesis markers. The experiment in a line: Mitochondrial biomass and biogenesis markers. The experiment is classed as cell-based. The procedure: Western blot. Western blots were performed from whole cell lysates (WCL) prepared in lysis buffer containing 50 mM Tris-HCl pH 7.5, 1% Triton X-100, 150 mM NaCl, 5 mM MgCl2, 1 mM EGTA and 10% glycerol in the presence of protease inhibitor cocktail (Roche). WCL were separated on a 4-12% NuPAGE MES gel (Invitrogen), transferred into a PVDF membrane, block for 1 hr and immunoblot with the corresponding anti-bodies.
Analysis of mitochondrial biogenesis-related genes by q-PCR. Total RNA was extracted by using RNeasy Mini Kit (Qiagen) followed by cDNA synthesis using the SuperScript IV VILO Master Mix (Thermo Scientific), both performed according to the manufacturer's protocol. q-PCR was performed using the following primers: […]
For the q-PCR reaction, Power SYBR Green master mix (Thermo Scientific) was used according to the manufacturer's instructions. Briefly, each reaction consisted of 10 ng cDNA, 5 μL Power SYBR Green master mix, 200 nM primers (forward and reverse), and RNase-free water up to 10 μL. q-PCR was performed on the ViiA 7 Real-Time PCR System (Thermo Scientific) with the following cycle parameter: 95° C. for 10 min, 40 cycles of 95° C. for 15 s, and 60° C. for 1 min. q-PCR products were analyzed by melting curves for unspecific products or primer dimer formation. Rpi39 was used as housekeeping gene and 2^−ΔΔCT method was applied to determine the relative mRNAs expression. […]

The test system of experiment [5] is U2OS cells. The experiment in a line: DNA damage, γH2AX immunofluorescence. The experiment is classed as cell-based. The procedure:
Immunofluorescent analysis and microscopy. Cells were treated with MASM7, MFI8 and or Q-VD-OPh at ~70% confluence for 6 h. After treatments, cells were washed with PBS and fixed with 4% PFA for 15 min. Then cells were permeabilized with 0.1% Triton X-100 in PBS for 10 min. Cells were blocked with 5% BSA in PBS-T and incubated overnight with primary antibodies as indicated; γH2AX (Sigma; 05-636, 1:100 dilution). After incubation with primary antibodies, cells were washed with PBS and incubated with the appropriate mouse secondary antibody (ThermoFisher Scientific; A-11001) in the blocking solution. After PBS washes, coverslips were dipped in water and mounted on glass slides using Vectashield containing DAPI (Vector laboratories). Images were taken with Leica SP5 inverted confocal microscope. Data were analyzed with ImageJ.

In a further experiment the test system is THP-1 cells. Put plainly: Cell death with BV6. It is filed as cell-based. The procedure:
(§1) Cell death assay. Cells (2×10^5 cells/well) were seeded in a 6-well plate and treated with the indicated drugs for 6 hours. Cells were dissociated using Accutase (Thermo Fisher; Cat. #00-4555-56) in order to avoid accidental exposure of phosphatidylserine on the outer plasma membrane. Cell death was evaluated with Dead Cell Apoptosis Kit with Annexin V Alexa Fluor™ 488 & Propidium Iodide (Thermo Fisher; Cat. #V13241) according to manufacturer's protocol. Data was acquired by BD LSRII flow cytometer system using BD FACSDiva software. Data was analyzed by FlowJo (BD).

Experiment [6] relates to U2OS cells. The experiment in a line: Cell death with BV6. The experiment is classed as cell-based. On the procedure:
as §1

For experiment [7], the system named is caspase-3/7 in U2OS cells. The experiment in a line: Caspase-3/7 activation assay. The experiment is classed as cell-based. The procedure: Caspase-3/7 activation assay. Cells (5×10^3 cells/well) were seeded in a 96-well white plate and treated with MASM7, MFI8. Caspase 3/7 activation was measured after 6 hr by addition of the Caspase-Glo 3/7 reagent according to the manufacturer's protocol (Promega). Luminescence was detected by a F200 PRO microplate reader (TECAN). Caspase assays were performed in at least triplicate and the data normalized to vehicle-treated control wells. Dilutions of MASM7 or MFI8 were performed using a TECAN D300e Digital Dispenser from 10 mM stocks.

Usually IC50 stands for the concentration that gives 50% inhibition. `Cc1cccc(NC(C)c2cc(Cl)ccc2O)c1C` (stereo not drawn) [MFI8]: the “genes involved in DNA damage response” value in the experiment with MEFs [1] (MEFs) was “up-regulated several genes that are involved in DNA damage response”. Moreover, in the experiment on MEFs [1] (RNA-seq), the “gene expression of subunits of the respiratory complexes” value was “reduced the gene expression of several nuclear-encoded subunits of the respiratory complexes”. In addition, the mitochondrial aspect ratio entry is listed as “significantly decreased mitochondrial aspect ratio” in the experiment on MEFs [2] (MFN1/MFN2 DKO MEFs reconstituted with WT MFN2); “reduced mitochondrial aspect ratio” in the experiment on MEFs [2] (co-treated with MASM7 in MEFs); “completely abolished MFI8 from reducing mitochondrial aspect ratio” with MEFs [2] (double knockout of MFN1 and MFN2); “still capable of reducing mitochondrial aspect ratio” with MEFs [2] (either MFN1 or MFN2 knocked out). Also, the IC50 in the experiment with MEFs [2] (Mus musculus, 6 h, read-out: IC50 (decrease of Mito AR)) stood at 4.06 µM. Besides, the “cytochrome c release to the cytosol” value in the experiment with MEFs [3] is reported as “cytochrome c was released to the cytosol, albeit at modest levels”. Also, in experiment [4], the “gene expression levels of mitochondrial biogenesis markers” value is “no alteration”. Moreover, the “Tomm20 protein levels, mitotracker green intensity and mitochondrial to nuclear DNA ratio” value in experiment [4] (mitochondrial biomass) was “neither MASM7 nor MFI8 altered”. Further, the DNA damage result is recorded as “induced DNA damage in U2OS cells” in the experiment on U2OS cells [5] (U2OS cells) and “abolished the capacity of the latter to induce DNA damage” in the experiment on U2OS cells [5] (U2OS, co-treatment with pan-caspase inhibitor Q-VD-OPh). The “cell death in combination with BV6” value with THP-1 cells and in the experiment with U2OS cells [6] was “synergistically induce cell death” in each case. The caspase-3/7 activation entry in experiment [7] is listed as “induced caspase-3/7 activation”.
